The values below come from patent US20040028760A1, “Method of treating inflammation and inflammation-related pain” (Michigan State University, priority 2002, published 2004).

Values after ≈ are worked out from the molar mass of the structure shown. “Also recorded” adds a separate entry of the source. Like-named read-outs stand apart in the source and are kept apart here.

The target of assay [1] is T1, human PGHS-II (COX-II) enzyme (Homo sapiens, UniProt P35354).
T1 construct: made in house; host or cells: insect cells (lysates)
T1 sequence (P35354 18-604): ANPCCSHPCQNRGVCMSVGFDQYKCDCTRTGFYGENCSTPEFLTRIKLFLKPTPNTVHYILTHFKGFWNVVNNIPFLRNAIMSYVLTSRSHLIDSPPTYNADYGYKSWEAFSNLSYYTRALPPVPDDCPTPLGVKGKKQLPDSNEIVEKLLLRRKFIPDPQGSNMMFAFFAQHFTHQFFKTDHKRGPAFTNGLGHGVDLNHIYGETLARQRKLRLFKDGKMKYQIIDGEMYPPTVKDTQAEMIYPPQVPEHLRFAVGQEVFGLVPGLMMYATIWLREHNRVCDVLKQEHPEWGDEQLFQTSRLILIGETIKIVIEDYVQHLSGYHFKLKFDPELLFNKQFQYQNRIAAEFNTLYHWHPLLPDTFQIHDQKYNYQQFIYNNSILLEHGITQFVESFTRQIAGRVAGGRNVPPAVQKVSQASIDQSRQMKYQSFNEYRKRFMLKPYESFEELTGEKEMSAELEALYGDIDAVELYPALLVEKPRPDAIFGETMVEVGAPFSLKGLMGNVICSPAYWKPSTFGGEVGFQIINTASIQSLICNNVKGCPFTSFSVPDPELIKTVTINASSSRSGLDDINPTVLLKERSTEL
The experiment in a line: Cyclooxygenase inhibitory assay (initial rate of O2 uptake), COX-II. The assay is classed as biochemical. Here is the method:
(§1) Prostaglandin H synthase isozymes-I (PGHS-I or COX-I) was prepared from ram seminal vesicles. PGHS-II or COX-II enzyme for the assay was prepared from lysates of cloned insect cell with human PGHS-II enzyme. Each assay mixture contained 600 μL of 0.1 M Tris buffer (pH 7), 1 mM phenol, 17 μg hemoglobin and 10 μL of COX-I or 20-30 μL of COX-II enzymes. Crude extracts or pure compounds were preincubated with 25-100 μg mL^−1 in DMSO for 5-minutes with COX-I or COX-II enzymes in the assay chamber at 37° C. […] Instantaneous inhibition of the enzyme was determined by monitoring the initial rate of O2 uptake using an O2 electrode.

Assay [2] concerns the target T2, prostaglandin H endoperoxide synthase-I (COX-I) (Ovis aries, UniProt P05979).
T2 construct: was prepared from ram seminal vesicles; from tissue; host or cells: ram seminal vesicles
T2 sequence (P05979 25-600): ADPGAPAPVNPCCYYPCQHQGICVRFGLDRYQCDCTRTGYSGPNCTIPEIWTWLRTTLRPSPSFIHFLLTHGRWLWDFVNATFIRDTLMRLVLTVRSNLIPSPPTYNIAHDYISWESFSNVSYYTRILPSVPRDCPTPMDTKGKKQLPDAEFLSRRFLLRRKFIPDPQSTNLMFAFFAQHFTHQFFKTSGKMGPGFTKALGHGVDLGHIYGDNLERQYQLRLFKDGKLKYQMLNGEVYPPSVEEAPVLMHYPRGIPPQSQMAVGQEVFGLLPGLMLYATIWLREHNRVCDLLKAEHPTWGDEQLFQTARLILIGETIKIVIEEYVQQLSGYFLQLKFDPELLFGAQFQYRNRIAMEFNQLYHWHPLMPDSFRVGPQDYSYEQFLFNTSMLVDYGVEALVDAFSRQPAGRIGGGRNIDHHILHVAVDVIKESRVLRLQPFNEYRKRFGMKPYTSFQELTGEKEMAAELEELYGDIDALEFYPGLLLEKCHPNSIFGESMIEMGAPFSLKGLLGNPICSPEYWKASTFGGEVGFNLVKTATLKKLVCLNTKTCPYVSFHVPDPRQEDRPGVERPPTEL
Put plainly: Cyclooxygenase inhibitory assay (initial rate of O2 uptake), COX-I. The format is biochemical, ram. To be noted: for inhibition at 100 µg/mL: read-out: COX-I inhibitory activity. On the procedure:
as §1

In assay [3] the target is T3, COX-II (Ovis aries, UniProt P79208).
T3 sequence (P79208 17-603): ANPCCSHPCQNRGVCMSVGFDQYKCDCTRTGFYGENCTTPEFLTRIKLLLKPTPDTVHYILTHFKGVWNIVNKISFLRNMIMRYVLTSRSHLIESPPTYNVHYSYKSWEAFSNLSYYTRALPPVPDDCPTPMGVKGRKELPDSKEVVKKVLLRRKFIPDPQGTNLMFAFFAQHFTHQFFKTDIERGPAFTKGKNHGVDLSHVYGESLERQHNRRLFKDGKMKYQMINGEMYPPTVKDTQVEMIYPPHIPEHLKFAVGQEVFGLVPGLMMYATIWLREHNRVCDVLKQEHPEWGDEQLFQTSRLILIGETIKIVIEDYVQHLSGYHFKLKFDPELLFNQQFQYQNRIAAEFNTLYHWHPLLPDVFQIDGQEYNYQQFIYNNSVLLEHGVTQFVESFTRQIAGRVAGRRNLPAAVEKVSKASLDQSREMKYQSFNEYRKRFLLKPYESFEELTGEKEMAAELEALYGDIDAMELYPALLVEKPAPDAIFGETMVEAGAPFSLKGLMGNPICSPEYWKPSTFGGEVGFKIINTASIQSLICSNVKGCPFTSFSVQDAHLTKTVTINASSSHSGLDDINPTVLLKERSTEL
To be noted: less than 500 μM; cited from earlier work.

Assay [4] has as its system COX-I. Conditions: less than 500 μM; cited from earlier work.
The target of assay [5] is T4, cyclooxygenase.
T4 construct: "prepared from ram seminal vesicles"
The assay is classed as biochemical. Here is the method:
as §1

The mark [6] stands for this setting: 100 μg mL^−1, compared to solvent control.

For the molecule `COc1cc(OC)c(C(=O)O)cc1OC` [2,4,5-trimethoxybenzoicacid, reference compound], in assay [1] (100 μg mL^−1), the “COX-II inhibition (result in words)” value was “didn't exhibit any inhibition”. Also, in assay [2] (100 μg mL^−1), the “COX-I inhibition (result in words)” value is on record as “didn't exhibit any inhibition”.

For `COc1cc(OC)c(OC)cc1C=O` [Compound 1, 2,4,5-trimethoxybenzaldehyde], the inhibition at 25 µg/mL in assay [1] (25 μg mL^−1) is over 30%. Also, the inhibition at 100 µg/mL in assay [1] (100 μg mL^−1) was found to be 52.7%; in assay [2] it was 3.32%. Also, in assay [1] (100 μg mL^−1, COX-II versus COX-I), the “selectivity towards COX-II enzyme inhibition (in words)” value is on record as “selectivity towards COX-II enzyme inhibition; also recorded: selective inhibition of COX-II enzyme”. For the same molecule, the COX-II/COX-I ratio in assay [1] (setting [6]) amounted to 17.68.

Regarding `CCCCCCCC/C=C\CCCCCCCC(=O)O` [Compound 2, oleic acid], the inhibition at 100 µg/mL was 68.4% in assay [1] (100 μg mL^−1) and 45.3% in assay [2] (100 μg mL^−1). Moreover, in assay [1] (setting [6]), the COX-II/COX-I ratio is 1.51. Moreover, in assay [3], the “COX-II inhibition (in words)” value is “not COX-I or COX-II inhibitory”. In addition, the “COX-I inhibition (in words)” value in assay [4] is reported as “not COX-I or COX-II inhibitory”.

The molecule `C/C=C/c1cc(OC)c(OC)cc1OC` [Compound 3, trans-asarone] showed a COX-II inhibitory activity in assay [1] (100 μg mL^−1) of 64.39%. The COX-II/COX-I ratio in assay [1] (setting [6]) stood at 1.4. Moreover, the COX-I inhibitory activity in assay [2] (100 μg mL^−1) is 46.15%.

In the case of `CC(C)=CCC/C(C)=C/CO` [Compound 4, geraniol], in assay [1] (100 μg mL^−1), the “COX-II inhibition (result in words)” value is recorded as “not active; also recorded: did not inhibit” and the inhibition at 100 µg/mL is 0%. Also, in assay [2] (100 μg mL^−1), the “COX-I inhibition (result in words)” value was “not active; also recorded: did not inhibit” and the inhibition at 100 µg/mL came out at 3.15%.

`CC(C)Cc1ccc(C(C)C(=O)O)cc1` (stereo not drawn) [Ibuprofen]: in assay [5], the IC50 values was determined as 2.52 µg/mL (≈ 12.2 µM).

In the case of `COc1ccc2cc([C@H](C)C(=O)O)ccc2c1` [Naproxen, reference compound], the COX-II/COX-I ratio in assay [1] was 0.92. In assay [5] (concentration at which the reference drug was assayed, isozyme not stated), this molecule showed an IC50 values of 2.06 µg/mL (≈ 8.95 µM).

For the molecule `COc1cc(OC)c(OC)cc1C=O` [Synthetic 2,4,5-trimethoxybenzaldehyde, 2,4,5-trimethoxybenzaldehyde, reference compound], the “COX-II inhibition of commercial synthetic sample versus natural product (in words)” value in assay [1] (25-100 μg mL^−1) is given as “slightly lower COX-II activity than natural form”.

For `CS(=O)(=O)c1ccc(C2=C(c3ccccc3)C(=O)OC2)cc1` [Vioxx, reference compound], the COX-II/COX-I ratio in assay [1] turned out to be 75.
